In assay [1] the target is T1, Carboxypeptidase G2 (CPG2) purified from E.coli clone pNM21 (cloned gene from Pseudomonas species strain RS-16) (Pseudomonas sp., UniProt P06621).
T1 construct: Amino acids 23 to 415 are the CPG2 structural gene; made in house; host or cells: E. coli W5445 carrying plasmid pNM21
Briefly: Km determination of purified carboxypeptidase G2 synthesised in E.coli (cloned gene product), methotrexate as substrate. It is filed as biochemical, Pseudomonas species strain RS-16 (expressed in E.coli). To be noted: CPG2 purified from E.coli carrying pNM21; read-out: Km vallues using methotrexate as substrate.
Experimental: (§1) CPG2 activity was determined after J L McCullough et al, J.Biol.Chem, 1971, 246, 7207. A.lml reaction cuvette containing 0.9 ml of 0.1 M Tris-HCl, pH 7.3 plus 0.2 mM ZnSO4 and 0.1 ml of 0.6 mM methotrexate was equilibrated at 37°C. Enzyme extract was added to the test cuvette and the decrease in absorbance at 320 nm measured using a Pye-Unicam SP1800 double-beam spectrophotometer. Enzyme activity per ml extract was calculated as Δ 320 nm absorbance/min divided by 8.3, which is equivalent to the hydrolysis of 1 µmol of MTX/min at 37°C.
(§2) To determine whether the cloned gene= product in E.coli had the same properties as CPG2 from the pseudomonad, enzyme was purified from E.coli carrying pNM21.

Assay [2] addresses Carboxypeptidase G2 (CPG2) from Pseudomonas strain RS-16 (Pseudomonas sp., UniProt P06621). The following applies: read-out: Km vallues using methotrexate as substrate.
Experimental: as §1, §2

Drawing on patent publication EP0121352A1, “A leader sequence to promote the secretion of gene products” (priority 1983, dated 1984), this text covers Km for one compound.

In general, Km refers to the substrate concentration at which the rate is half of its maximum.

Chain of Carboxypeptidase G2 (CPG2) from Pseudomonas strain RS-16 (P06621 23-415): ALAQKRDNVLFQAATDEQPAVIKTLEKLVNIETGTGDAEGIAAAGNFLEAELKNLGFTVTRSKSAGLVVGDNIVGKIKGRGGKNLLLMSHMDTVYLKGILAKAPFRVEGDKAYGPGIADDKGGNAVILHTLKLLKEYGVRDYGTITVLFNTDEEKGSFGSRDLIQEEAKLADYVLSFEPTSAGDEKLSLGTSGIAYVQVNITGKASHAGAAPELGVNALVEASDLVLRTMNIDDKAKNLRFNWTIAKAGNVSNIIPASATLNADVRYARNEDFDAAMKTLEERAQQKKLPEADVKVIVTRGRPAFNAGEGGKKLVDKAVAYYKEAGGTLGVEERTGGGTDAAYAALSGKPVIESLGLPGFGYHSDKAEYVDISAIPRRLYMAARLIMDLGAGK
T1 sequence (P06621 23-415): as above

Turning to `CN(Cc1cnc2nc(N)nc(N)c2n1)c1ccc(C(=O)N[C@@H](CCC(=O)O)C(=O)O)cc1` [methotrexate], the Km in assay [1] was found to be 7.4 µM; in assay [2] it was 8 µM.
